The results in this text go back to patent US12264158B2, “Protein kinase MKK4 inhibitors for promoting liver regeneration or reducing or preventing hepatocyte death” (HEPAREGENIX GMBH, priority 2018, dated 2025).

One assay has as its target T1, MKK4 active (Homo sapiens, UniProt P45985).
T1 construct: purchased ProQinase #0948-0000-1
T1 sequence (P45985 1-399): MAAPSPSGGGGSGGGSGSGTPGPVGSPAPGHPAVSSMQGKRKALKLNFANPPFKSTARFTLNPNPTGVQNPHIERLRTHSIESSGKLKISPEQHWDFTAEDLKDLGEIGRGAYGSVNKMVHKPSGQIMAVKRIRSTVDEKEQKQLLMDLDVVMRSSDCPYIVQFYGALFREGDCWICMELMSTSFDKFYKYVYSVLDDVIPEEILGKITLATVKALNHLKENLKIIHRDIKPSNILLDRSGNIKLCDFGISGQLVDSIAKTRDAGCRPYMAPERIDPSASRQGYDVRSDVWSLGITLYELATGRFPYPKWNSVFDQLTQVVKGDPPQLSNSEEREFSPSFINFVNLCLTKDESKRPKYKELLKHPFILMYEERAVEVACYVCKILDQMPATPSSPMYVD
Briefly: Radiometric protein kinase assay, MKK4 active. The note with it: substrate JNK1 KRKR, ATP 0.2 μM, read-out: MKK4, potency derived from IC50-values. It is filed as biochemical. As for the experimental part: (§1) A radiometric protein kinase assay was used for measuring the kinase activity of the respective protein kinases. All kinase assays were performed in 96-well polypropylene plates. After the reactions were stopped, the assay mixtures were transferred to 96-well MSFC filter-plates (Millipore). The reaction mix was passed through the filter membrane by aspiration, the membrane was washed 3 times with 150 mM H3PO4, once with ethanol, dried and liquid scintillation cocktail was added. Radioactivity was determined by counting of the samples in a Microbeta multiwell scintillation counter (Wallac).

The next assay has as its target BRaf (Homo sapiens, UniProt P15056). Briefly: KINOMEscan competition binding assay, selectivity against off-target BRaf. The note with it: concentration of 100 nM. The method in brief:
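Competition binding: test compound competes with an immobilized ligand for DNA-tagged BRaf, and kinase captured on the ligand is quantified by qPCR of the DNA tag. Compounds from 10 mM stocks were tested at the indicated final concentrations.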

Another assay deals with T2, MEKK2 (Homo sapiens, UniProt Q9Y2U5).
T2 construct: purchased ProQinase #0583-0000-1
T2 sequence (Q9Y2U5 1-619): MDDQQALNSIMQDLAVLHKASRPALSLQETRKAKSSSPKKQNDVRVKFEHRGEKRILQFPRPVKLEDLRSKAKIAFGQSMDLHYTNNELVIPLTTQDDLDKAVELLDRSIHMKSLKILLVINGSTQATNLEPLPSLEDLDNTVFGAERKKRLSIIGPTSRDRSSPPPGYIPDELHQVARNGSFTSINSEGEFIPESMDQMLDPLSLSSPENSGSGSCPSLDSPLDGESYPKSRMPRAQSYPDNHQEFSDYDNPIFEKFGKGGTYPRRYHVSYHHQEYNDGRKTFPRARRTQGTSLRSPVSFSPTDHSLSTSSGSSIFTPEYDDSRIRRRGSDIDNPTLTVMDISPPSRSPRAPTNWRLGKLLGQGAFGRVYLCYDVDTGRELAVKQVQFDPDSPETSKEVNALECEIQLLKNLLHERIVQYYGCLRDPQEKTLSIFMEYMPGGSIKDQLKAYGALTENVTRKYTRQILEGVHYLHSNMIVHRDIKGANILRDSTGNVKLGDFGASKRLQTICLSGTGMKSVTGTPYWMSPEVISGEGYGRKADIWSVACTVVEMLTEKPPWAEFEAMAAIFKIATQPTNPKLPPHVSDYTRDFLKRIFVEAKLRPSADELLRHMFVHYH
Nature of the assay: Radiometric protein kinase assay, MEKK2. Type of assay: biochemical. The note with it: substrate Casein, ATP 0.2 μM; read-out: MEKK2, potency derived from IC50-values. As for the experimental part: as §1

In the next assay the target is T3, MKK4-MEKK2 mix (Homo sapiens, UniProt P45985).
T3 construct: MEKK2, recombinant, active: ProQinase product #0583-0000-1
T3 sequence (P45985 2-399): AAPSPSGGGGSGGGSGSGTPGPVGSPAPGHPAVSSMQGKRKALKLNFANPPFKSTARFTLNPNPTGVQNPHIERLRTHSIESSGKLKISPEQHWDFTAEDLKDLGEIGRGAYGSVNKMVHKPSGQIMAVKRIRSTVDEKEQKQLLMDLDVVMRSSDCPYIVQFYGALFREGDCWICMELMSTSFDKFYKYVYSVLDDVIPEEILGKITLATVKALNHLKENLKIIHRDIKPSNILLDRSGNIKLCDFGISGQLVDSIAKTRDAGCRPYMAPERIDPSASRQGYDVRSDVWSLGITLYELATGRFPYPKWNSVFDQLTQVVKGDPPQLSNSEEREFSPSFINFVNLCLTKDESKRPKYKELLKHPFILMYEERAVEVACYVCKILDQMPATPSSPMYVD
Briefly: Radiometric protein kinase assay, MEKK2 dependent MKK4 activation (cascade). It is filed as biochemical. The note with it: substrate JNK1 KRKR, ATP 0.2 μM, read-out: Cascade, potency derived from IC50-values. The procedure: The activation step is done in 50 mM HEPES pH 7.5, 50 mM NaCl, 3.8 mM MgCl2, 2.5 mM DTT, 10% (v/v) glycerol. Final DMSO concentration is 1%. The activation mixture is pipetted in the following order • 2.5 μl compound in 4% DMSO • 2.5 μl ATP/MgCl2 mix • 5 μl premixed kinase solution MKK4:MEKK2 10:1 (w/w)
Protein concentrations in the activation mix are 1 μM MKK4 and 50 nM MEKK2.
as §1

Another assay deals with T4, JNK1 (Homo sapiens, UniProt P45983).
T4 construct: M1/Q384; host or cells: HEK-293
Briefly: KINOMEscan competition binding assay, selectivity against off-target JNK1. The note with it: concentration of 100 nM. The gist of the method: (§2)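 DNA-tagged kinases expressed in HEK-293 cells compete between test compound and immobilized ligand on blocked beads. Bound kinase is eluted and quantified by qPCR of the DNA tag. Compounds were tested at the indicated final concentrations, prepared from 10 mM stocks.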

In the next assay the target is T5, MKK7 (Homo sapiens, UniProt O14733).
T5 construct: M1/R419; host or cells: HEK-293
T5 sequence (O14733 1-419): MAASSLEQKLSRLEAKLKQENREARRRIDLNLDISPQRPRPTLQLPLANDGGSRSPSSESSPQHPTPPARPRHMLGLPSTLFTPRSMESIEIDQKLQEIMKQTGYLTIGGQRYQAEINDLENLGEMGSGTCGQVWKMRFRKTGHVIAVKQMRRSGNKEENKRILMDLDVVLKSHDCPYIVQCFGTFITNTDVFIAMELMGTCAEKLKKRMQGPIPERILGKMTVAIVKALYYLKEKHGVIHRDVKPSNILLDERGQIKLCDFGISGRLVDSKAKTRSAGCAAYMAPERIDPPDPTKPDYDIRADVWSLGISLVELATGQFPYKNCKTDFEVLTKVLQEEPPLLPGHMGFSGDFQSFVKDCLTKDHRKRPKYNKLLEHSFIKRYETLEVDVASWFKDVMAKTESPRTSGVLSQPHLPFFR
Briefly: KINOMEscan competition binding assay, selectivity against off-target MKK7. The note with it: concentration of 100 nM. The gist of the method: as §2

Another assay concerns the target T6, MKK4 (Homo sapiens, UniProt P45985).
T6 construct: S84/D399; host or cells: HEK-293
T6 sequence (P45985 84-399): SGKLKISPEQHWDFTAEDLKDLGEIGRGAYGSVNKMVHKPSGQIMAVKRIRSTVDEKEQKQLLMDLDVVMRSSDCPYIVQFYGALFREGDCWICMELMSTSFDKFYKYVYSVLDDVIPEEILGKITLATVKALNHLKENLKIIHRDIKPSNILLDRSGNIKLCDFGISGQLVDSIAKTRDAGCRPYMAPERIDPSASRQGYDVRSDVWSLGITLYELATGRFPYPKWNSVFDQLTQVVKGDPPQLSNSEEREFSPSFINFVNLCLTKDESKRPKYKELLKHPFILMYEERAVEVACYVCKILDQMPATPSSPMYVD
Nature of the assay: KINOMEscan competition binding assay, MKK4 potency. The note with it: concentration of 100 nM. The gist of the method:
as §2

T4 sequence (P45983 1-384 isoform P45983-2): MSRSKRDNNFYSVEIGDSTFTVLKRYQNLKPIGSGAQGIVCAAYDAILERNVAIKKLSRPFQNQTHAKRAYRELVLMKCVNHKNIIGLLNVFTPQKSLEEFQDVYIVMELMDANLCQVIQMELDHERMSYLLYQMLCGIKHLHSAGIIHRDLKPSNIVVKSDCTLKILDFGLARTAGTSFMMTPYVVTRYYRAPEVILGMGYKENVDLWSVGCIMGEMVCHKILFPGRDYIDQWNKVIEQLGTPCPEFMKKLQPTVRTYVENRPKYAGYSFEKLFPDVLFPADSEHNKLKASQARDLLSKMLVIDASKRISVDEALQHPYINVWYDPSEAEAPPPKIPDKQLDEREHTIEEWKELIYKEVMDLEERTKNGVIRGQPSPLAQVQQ
BRaf, sequence (P15056 whole entry): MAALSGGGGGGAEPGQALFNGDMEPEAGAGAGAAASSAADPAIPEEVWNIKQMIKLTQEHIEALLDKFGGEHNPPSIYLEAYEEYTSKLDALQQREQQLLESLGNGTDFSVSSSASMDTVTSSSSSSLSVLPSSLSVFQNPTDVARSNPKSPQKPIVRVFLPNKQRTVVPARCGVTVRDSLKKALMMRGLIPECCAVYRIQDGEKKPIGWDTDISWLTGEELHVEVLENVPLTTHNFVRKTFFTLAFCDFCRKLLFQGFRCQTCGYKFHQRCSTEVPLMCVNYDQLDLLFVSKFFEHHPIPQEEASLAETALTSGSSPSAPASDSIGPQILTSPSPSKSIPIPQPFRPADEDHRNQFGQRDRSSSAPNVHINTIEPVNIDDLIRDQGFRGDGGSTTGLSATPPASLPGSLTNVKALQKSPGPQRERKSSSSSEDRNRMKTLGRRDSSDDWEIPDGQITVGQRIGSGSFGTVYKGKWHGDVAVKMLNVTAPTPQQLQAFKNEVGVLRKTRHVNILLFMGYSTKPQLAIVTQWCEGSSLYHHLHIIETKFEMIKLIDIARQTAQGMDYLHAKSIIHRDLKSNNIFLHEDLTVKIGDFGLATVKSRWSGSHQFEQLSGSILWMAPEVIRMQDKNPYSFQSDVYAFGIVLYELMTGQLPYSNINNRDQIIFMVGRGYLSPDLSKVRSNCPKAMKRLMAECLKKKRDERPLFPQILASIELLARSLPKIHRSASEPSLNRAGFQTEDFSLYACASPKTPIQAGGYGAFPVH

Consider `CCCS(=O)(=O)Nc1c(F)ccc(C(=O)c2n[nH]c3ncc(-c4ccccc4Cl)cc23)c1F` [Example 64, N-(3-(5-(2-chlorophenyl)-1H-pyrazolo[3,4-b]pyridine-3-carbonyl)-2,6-difluorophenyl)propane-1-sulfonamide], for which the IC50 on MKK4 active was less than 500 nM.

As to `CCCS(=O)(=O)Nc1ccc(F)c(C(=O)c2n[nH]c3ncc(-c4cccc(OC)c4)cc23)c1F` [Example 17, N-(2,4-difluoro-3-(5-(3-methoxyphenyl)-1H-pyrazo-lo[3,4-b]pyridine-3-carbonyl)-phenyl)propane-1-sulfon-amide], the “Selectivity vs. BRaf, ratio PoC(BRaf)/PoC(MKK4)” value at BRaf was “+ (10 > PoC(BRaf)/PoC(MKK4) ≥ 3)”. In addition, the IC50 at MEKK2 is more than 10000 nM; at MKK4-MEKK2 mix it was 1000 to 10000 nM; on MKK4 active it was 1000 to 10000 nM. Moreover, on JNK1, the “Selectivity vs. JNK1, ratio PoC(JNK1)/PoC(MKK4)” value is listed as “++ (30 > PoC(JNK1)/PoC(MKK4) ≥ 10)”. For the same molecule, the “Selectivity vs. MKK7, ratio PoC(MKK7)/PoC(MKK4)” value on MKK7 is reported as “++ (30 > PoC(MKK7)/PoC(MKK4) ≥ 10)”. For the same molecule, the “MKK4, residual percent of control binding (PoC)” value (“MKK4, residual percent” for short) on MKK4 was “++ (1 ≤ PoC < 10)”.

As to `CS(=O)(=O)Nc1c(F)ccc(C(=O)c2n[nH]c3ncc(-c4ccc(C(N)=O)cc4)cc23)c1F` [Example 54b, 4-[3-[2,4-difluoro-3-(methanesulfonamido)benzoyl]-1H-pyrazolo[3,4-b]pyridin-5-yl]benzamide], the 50% inhibitory concentration (IC50) on MKK4 active was less than 500 nM.

Take `CS(=O)(=O)Nc1c(F)ccc(C(=O)c2n[nH]c3ncc(-c4ccc(C(=O)O)cc4)cc23)c1F` [Example 55, 4-[3-[2,4-difluoro-3-(methanesulfonamido)benzoyl]-1H-pyrazolo[3,4-b]pyridin-5-yl]benzoic acid]: the IC50 on MKK4 active is less than 500 nM.

For `CCCS(=O)(=O)Nc1c(F)ccc(C(=O)c2n[nH]c3ncc(-c4ccc(S(N)(=O)=O)cc4)cc23)c1F` [Example 67, 4-(3-(2,4-difluoro-3-(propylsulfon-amido)benzoyl)-1H-pyrazolo[3,4-b]pyridin-5-yl)benzenesulfonamide], the IC50 on MEKK2, at MKK4-MEKK2 mix and on MKK4 active was less than 500 nM throughout.

Take `CS(=O)(=O)Nc1c(F)ccc(C(=O)c2n[nH]c3ncc(-c4ccc(-c5nnn[nH]5)cc4)cc23)c1F` [Example 54a, N-[2,6-difluoro-3-[5-[4-(1H-tetrazol-5-yl)phenyl]-1H-pyrazolo[3,4-b]pyridine-3-carbonyl]phenyl]methanesulfonamide]: the IC50 on MKK4 active was less than 500 nM.

With `CCCS(=O)(=O)Nc1c(F)ccc(C(=O)c2n[nH]c3ncc(-c4ccc(O)cc4)cc23)c1F` [Example 76, N-(2,6-difluoro-3-(5-(4-hydroxyphenyl)-1H-pyrazolo[3,4-b]pyridine-3-carbonyl)phenyl)propane-1-sulfonamide], the IC50 at MKK4 active was less than 500 nM.

Turning to `CS(=O)(=O)Nc1c(F)ccc(C(=O)c2n[nH]c3ncc(-c4ccc(S(N)(=O)=O)cc4)cc23)c1F` [Example 54c, 4-[3-[2,4-difluoro-3-(methanesulfonamido)benzoyl]-1H-pyrazolo[3,4-b]pyridin-5-yl]benzenesulfonamide], the IC50 at MKK4 active is less than 500 nM.

For `CCCS(=O)(=O)Nc1c(F)ccc(C(=O)c2n[nH]c3ncc(-c4ccc(C(=O)O)cc4)cc23)c1F` [Example 62, 4-(3-(2,4-difluoro-3-(propylsulfon-amido)benzoyl)-1H-pyrazolo[3,4-b]pyridin-5-yl)benzoic acid], the “Selectivity vs. BRaf, ratio PoC(BRaf)/PoC(MKK4)” value on BRaf is reported as “+++ (PoC(BRaf)/PoC(MKK4) ≥ 30)”. At JNK1, the “Selectivity vs. JNK1, ratio PoC(JNK1)/PoC(MKK4)” value is recorded as “+++ (PoC(JNK1)/PoC(MKK4) ≥ 30)”. In addition, on MKK4 active, the IC50 was less than 500 nM. In addition, the “Selectivity vs. MKK7, ratio PoC(MKK7)/PoC(MKK4)” value at MKK7 was “+++ (PoC(MKK7)/PoC(MKK4) ≥ 30)”. Further, the “MKK4, residual percent” value on MKK4 is “+++ (PoC < 1)”.

For the molecule `O=C(c1ccc(F)c(NS(=O)(=O)Cc2ccccc2)c1F)c1n[nH]c2ncc(-c3ccncc3)cc12` [Example 68, N-[2,6-difluoro-3-(5-pyridin-4-yl-1H-pyrazolo[3,4-b]pyridine-3-carbonyl)phenyl]-1-phenylmethanesulfonamide], the “Selectivity vs. BRaf, ratio PoC(BRaf)/PoC(MKK4)” value at BRaf is given as “+++ (PoC(BRaf)/PoC(MKK4) ≥ 30)”. Moreover, on JNK1, the “Selectivity vs. JNK1, ratio PoC(JNK1)/PoC(MKK4)” value is on record as “+++ (PoC(JNK1)/PoC(MKK4) ≥ 30)”. On MKK4 active, the IC50 was less than 500 nM. Moreover, the “Selectivity vs. MKK7, ratio PoC(MKK7)/PoC(MKK4)” value at MKK7 is on record as “+++ (PoC(MKK7)/PoC(MKK4) ≥ 30)”. For the same molecule, the “MKK4, residual percent” value at MKK4 is listed as “+++ (PoC < 1)”.

In the case of `CCCS(=O)(=O)Nc1ccc(F)c(C(=O)c2n[nH]c3ncc(-c4ccc(S(N)(=O)=O)cc4F)cc23)c1F` [Example 51m, 4-(3-(2,6-difluoro-3-(propylsulfonamido)benzoyl)-1H-pyrazolo[3,4-b]pyridin-5-yl)-3-fluorobenzenesulfonamide], the IC50 at MEKK2 is 1000 to 10000 nM; on MKK4-MEKK2 mix, 1000 to 10000 nM; on MKK4 active it was less than 500 nM.

Regarding `CCCS(=O)(=O)Nc1c(F)ccc(C(=O)c2n[nH]c3ncc(-c4ccc(C(C)C)cc4)cc23)c1F` [Example 65, N-(2,6-difluoro-3-(5-(4-isopropyl-phenyl)-1H-pyrazolo[3,4-b]pyridine-3-carbonyl)phenyl)propane-1-sulfonamide], the IC50 at MEKK2 fell in the range of 1000 to 10000 nM.

The term IC50 denotes the point on the concentration scale where inhibition reaches its midpoint.
